# Values quoted from earlier work in patent US6689338B2, “Bioconjugates of nanoparticles as radiopharmaceuticals” (The Board of Regents for Oklahoma State University, priority 2000, dated 2004).
# Tested on: tumor
# Conditions: in vivo
compound,measurement,value
O=C([O-])CN(CCN(CC(=O)[O-])CC(=O)[O-])CCN(CC(=O)[O-])CC(=O)[O-].[111In+3].[H+].[H+],liver background,high liver background
